Experimental data from PubChem BioAssay (NCI).
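The compound was tested at five concentrations on cells cultured in 96-well plates, with a 48-hour exposure period. TGI: concentration producing complete growth inhibition.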

Tests used:
Assay in all cases: growth of human tumour cells (NCI), 48 h
[1] = tested on: SF-268 CNS
[2] = tested on: M14 melanoma
[3] = tested on: XF 498 CNS
[4] = tested on: KM12 colon
[5] = tested on: LOX IMVI melanoma
[6] = tested on: HOP-62 NSCLC
[7] = tested on: A549 NSCLC
[8] = tested on: HL-60(TB) leukemia
[9] = tested on: HOP-92 NSCLC
[10] = tested on: SNB-19 CNS
[11] = tested on: ACHN renal
[12] = tested on: SNB-78 CNS
[13] = tested on: SN12C renal
[14] = tested on: OVCAR-8 ovarian
[15] = tested on: SF-295 CNS
[16] = tested on: HCC-2998 colon
[17] = tested on: DMS 273 small cell lung
[18] = tested on: U251 CNS
[19] = tested on: CAKI-1 renal
[20] = tested on: UACC-257 melanoma
[21] = tested on: SK-MEL-5 melanoma
[22] = tested on: K-562 leukemia
[23] = tested on: MALME-3M melanoma
[24] = tested on: UACC-62 melanoma
[25] = tested on: LXFL 529 NSCLC
[26] = tested on: OVCAR-4 ovarian
[27] = tested on: RPMI-8226 leukemia
[28] = tested on: DLD-1 colon
[29] = tested on: COLO 205 colon
[30] = tested on: TK-10 renal
[31] = tested on: SNB-75 CNS
[32] = tested on: OVCAR-3 ovarian
[33] = tested on: IGROV1 ovarian
[34] = tested on: SK-OV-3 ovarian
[35] = tested on: OVCAR-5 ovarian
[36] = tested on: SW-620 colon
[37] = tested on: RXF-631 renal
[38] = tested on: NCI-H522 lung
[39] = tested on: HT29 colon
[40] = tested on: NCI-H23 lung
[41] = tested on: HCT-116 colon
[42] = tested on: RXF 393 renal
[43] = tested on: SK-MEL-2 melanoma
[44] = tested on: UO-31 renal
[45] = tested on: DMS 114 small cell lung
[46] = tested on: 786-0 renal
[47] = tested on: KM20L2 colon
[48] = tested on: SF-539 CNS
[49] = tested on: EKVX NSCLC
[50] = tested on: HCT-15 colon
[51] = tested on: NCI-H226 lung
[52] = tested on: CCRF-CEM leukemia
[53] = tested on: NCI-H460 lung
[54] = tested on: A498 renal

## CC1=C(C(=O)CC(=O)C(=O)Nc2ccccc2C(F)(F)F)Sc2ccccc2N1
[1]
  TGI: 71.4 µM
[2]
  TGI: > 100 µM
[3]
  TGI: > 100 µM
[4]
  TGI: > 100 µM
[5]
  TGI: > 100 µM
[6]
  TGI: 96.8 µM
[7]
  TGI: > 100 µM
[8]
  TGI: > 100 µM
[9]
  TGI: 83.5 µM
[10]
  TGI: > 100 µM
[11]
  TGI: > 100 µM
[12]
  TGI: > 100 µM
[13]
  TGI: > 100 µM
[14]
  TGI: > 100 µM
[15]
  TGI: > 100 µM
[16]
  TGI: > 100 µM
[17]
  TGI: > 100 µM
[18]
  TGI: > 100 µM
[19]
  TGI: > 100 µM
[20]
  TGI: > 100 µM
[21]
  TGI: > 100 µM
[22]
  TGI: > 100 µM
[23]
  TGI: > 100 µM
[24]
  TGI: > 100 µM
[25]
  TGI: > 100 µM
[26]
  TGI: > 100 µM
[27]
  TGI: > 100 µM
[28]
  TGI: > 100 µM
[29]
  TGI: > 100 µM
[30]
  TGI: > 100 µM
[31]
  TGI: 80.1 µM
[32]
  TGI: > 100 µM
[33]
  TGI: > 100 µM
[34]
  TGI: > 100 µM
[35]
  TGI: > 100 µM
[36]
  TGI: > 100 µM
[37]
  TGI: > 100 µM
[38]
  TGI: 68.4 µM
[39]
  TGI: > 100 µM
[40]
  TGI: 85.6 µM
[41]
  TGI: > 100 µM
[42]
  TGI: 66.2 µM
[43]
  TGI: > 100 µM
[44]
  TGI: 61.7 µM
[45]
  TGI: > 100 µM
[46]
  TGI: > 100 µM
[47]
  TGI: > 100 µM
[48]
  TGI: > 100 µM
[49]
  TGI: > 100 µM
[50]
  TGI: > 100 µM
[51]
  TGI: 87.8 µM
[52]
  TGI: > 100 µM
[53]
  TGI: > 100 µM
[54]
  TGI: > 100 µM
